According to the NIST ThermoML archive (doi:10.1021/acs.jced.7b00458):
± gives the expanded uncertainty stated by the source.

Conditions: 100 kPa, Liquid; for electrical conductivity: Alternating current cell with electrodes; for viscosity: Concentric cylinders viscometry; for mass density: Vibrating tube method

CC[P+](CC)(CC)CCOC.O=S(=O)([N-]S(=O)(=O)C(F)(F)F)C(F)(F)F
Conditions	electrical conductivity [S/m]	mass density [kg/m3]	viscosity [mPa·s]
298.15 K	0.384 ± 0.046	1378 ± 1	48.14 ± 0.34
300.15 K	0.411 ± 0.049	1376 ± 1	44.28 ± 0.31
306.15 K	0.498 ± 0.06	1370 ± 1	34.95 ± 0.25
312.15 K	0.608 ± 0.073	1365 ± 1	28.1 ± 0.2
318.15 K	0.719 ± 0.086	1360 ± 1	22.97 ± 0.16
324.15 K	0.848 ± 0.1	1354 ± 1	19.04 ± 0.14
330.15 K	0.987 ± 0.12	1349 ± 1	16.01 ± 0.11
336.15 K	1.13 ± 0.14	1344 ± 1	13.62 ± 0.1
341.15 K	–	1339 ± 1	11.98 ± 0.09
348.15 K	1.45 ± 0.17	1333 ± 1	10.15 ± 0.07
355.15 K	–	1327 ± 1	8.692 ± 0.062
361.15 K	1.84 ± 0.22	1322 ± 1	7.672 ± 0.055
373.15 K	–	1311 ± 1	5.99 ± 0.044

CCCC[N+]1(C)CCCC1.O=S(=O)([N-]S(=O)(=O)C(F)(F)F)C(F)(F)F
Conditions	electrical conductivity [S/m]	mass density [kg/m3]	viscosity [mPa·s]
298.15 K	0.393 ± 0.039	1395 ± 1	77.76 ± 0.66
300.15 K	0.423 ± 0.042	1393 ± 1	71.11 ± 0.56
306.15 K	0.52 ± 0.052	1388 ± 1	54.97 ± 0.36
312.15 K	0.638 ± 0.064	1382 ± 1	43.41 ± 0.31
318.15 K	0.772 ± 0.077	1377 ± 1	34.92 ± 0.25
324.15 K	0.924 ± 0.092	1372 ± 1	28.56 ± 0.2
330.15 K	1.08 ± 0.11	1367 ± 1	23.69 ± 0.17
336.15 K	1.26 ± 0.13	1361 ± 1	19.91 ± 0.14
341.15 K	–	1357 ± 1	17.37 ± 0.12
348.15 K	1.64 ± 0.16	1351 ± 1	14.53 ± 0.1
355.15 K	–	1345 ± 1	12.31 ± 0.09
361.15 K	2.11 ± 0.21	1340 ± 1	10.78 ± 0.08
373.15 K	–	1330 ± 1	8.272 ± 0.06

CCCC[N+]1(C)CCCCC1.O=S(=O)([N-]S(=O)(=O)C(F)(F)F)C(F)(F)F
Conditions	electrical conductivity [S/m]	mass density [kg/m3]	viscosity [mPa·s]
298.15 K	0.139 ± 0.017	1382 ± 1	188.9 ± 3.5
300.15 K	0.153 ± 0.018	1380 ± 1	168 ± 2.9
306.15 K	0.202 ± 0.024	1375 ± 1	120.2 ± 1.6
312.15 K	0.264 ± 0.032	1370 ± 1	88.67 ± 0.85
318.15 K	0.337 ± 0.04	1365 ± 1	67.13 ± 0.5
324.15 K	0.424 ± 0.051	1360 ± 1	52.01 ± 0.34
330.15 K	0.519 ± 0.062	1355 ± 1	41.12 ± 0.29
336.15 K	0.626 ± 0.075	1349 ± 1	33.12 ± 0.23
341.15 K	–	1345 ± 1	27.98 ± 0.2
348.15 K	0.876 ± 0.1	1339 ± 1	22.51 ± 0.16
355.15 K	–	1333 ± 1	18.36 ± 0.13
361.15 K	1.19 ± 0.14	1329 ± 1	15.62 ± 0.11
373.15 K	–	1319 ± 1	11.62 ± 0.08

CCCCC[P+](CC)(CC)CC.O=S(=O)([N-]S(=O)(=O)C(F)(F)F)C(F)(F)F
Conditions	electrical conductivity [S/m]	mass density [kg/m3]	viscosity [mPa·s]
298.15 K	0.21 ± 0.025	1304 ± 1	85.3 ± 0.79
300.15 K	0.223 ± 0.027	1302 ± 1	77.43 ± 0.65
306.15 K	0.286 ± 0.034	1297 ± 1	58.68 ± 0.4
312.15 K	0.358 ± 0.043	1292 ± 1	45.42 ± 0.32
318.15 K	0.435 ± 0.052	1287 ± 1	35.82 ± 0.25
324.15 K	0.521 ± 0.063	1282 ± 1	28.79 ± 0.2
330.15 K	0.612 ± 0.073	1277 ± 1	23.5 ± 0.17
336.15 K	0.711 ± 0.085	1272 ± 1	19.46 ± 0.14
341.15 K	–	1268 ± 1	16.79 ± 0.12
348.15 K	0.917 ± 0.11	1262 ± 1	13.86 ± 0.1
355.15 K	–	1256 ± 1	11.58 ± 0.08
361.15 K	1.17 ± 0.14	1251 ± 1	10.02 ± 0.07
373.15 K	–	1241 ± 1	7.531 ± 0.054
